From patent US20120172340A1, “Compositions and Methods for Selectively Activating Human Sirtuins” (BIOMOL International L.P., priority 2004, published 2012)
“Also recorded” adds a separate entry of the source.

Key:
[1] = target: T1, human SIRT1 (Homo sapiens, UniProt Q96EB6); assay: SIRT1 rate measurement, fluorogenic p53-382 peptide deacetylation; format: biochemical; conditions: 100 μM test compounds; 25 μM NAD+, 25 μM p53-382 peptide
T1 construct: made in house; host or cells: E. coli
T1 sequence (Q96EB6 1-747): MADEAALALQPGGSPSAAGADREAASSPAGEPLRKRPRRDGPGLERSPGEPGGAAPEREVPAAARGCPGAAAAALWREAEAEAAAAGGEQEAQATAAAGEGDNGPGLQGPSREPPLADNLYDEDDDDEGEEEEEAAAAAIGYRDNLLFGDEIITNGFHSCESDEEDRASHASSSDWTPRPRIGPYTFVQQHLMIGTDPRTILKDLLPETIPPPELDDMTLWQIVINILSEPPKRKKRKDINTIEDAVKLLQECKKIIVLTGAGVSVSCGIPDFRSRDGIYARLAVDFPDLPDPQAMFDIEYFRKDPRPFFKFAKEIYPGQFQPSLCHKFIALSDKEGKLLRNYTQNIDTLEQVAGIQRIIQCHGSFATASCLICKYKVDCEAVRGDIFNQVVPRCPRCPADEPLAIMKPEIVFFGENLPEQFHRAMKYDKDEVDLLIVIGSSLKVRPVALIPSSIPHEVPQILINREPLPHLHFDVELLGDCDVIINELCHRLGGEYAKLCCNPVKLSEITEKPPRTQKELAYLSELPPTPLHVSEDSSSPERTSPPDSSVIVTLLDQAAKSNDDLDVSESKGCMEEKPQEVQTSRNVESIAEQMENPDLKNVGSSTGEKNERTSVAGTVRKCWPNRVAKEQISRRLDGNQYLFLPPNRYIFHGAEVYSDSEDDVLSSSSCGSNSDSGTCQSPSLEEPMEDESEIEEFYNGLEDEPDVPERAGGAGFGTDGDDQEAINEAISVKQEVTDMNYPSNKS

[2] = target: T2, human SIRT5 (Homo sapiens, UniProt Q9NXA8); assay: SIRT5 rate measurement, fluorogenic p53-382 peptide deacetylation; format: biochemical; parameters: His6 (histidine tag, 2.5 kDa) (N); made in house; host or cells: E. coli; conditions: for relative activation of SIRT5 versus SIRT1 (in words): comparison of Table 2 SIRT5 and SIRT1 data
T2 sequence (Q9NXA8 37-310): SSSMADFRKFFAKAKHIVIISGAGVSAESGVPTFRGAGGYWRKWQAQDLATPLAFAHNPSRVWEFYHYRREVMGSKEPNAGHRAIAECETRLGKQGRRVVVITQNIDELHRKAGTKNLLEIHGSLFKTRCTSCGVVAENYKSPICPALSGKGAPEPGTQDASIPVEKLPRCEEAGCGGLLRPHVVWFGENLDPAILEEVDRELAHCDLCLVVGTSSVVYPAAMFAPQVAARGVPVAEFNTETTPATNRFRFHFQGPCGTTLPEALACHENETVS

[3] = 200 μM test compounds, 500 μM NAD+, 100 μM p53-382 peptide

SMILES	SIRT1 Ratio to Control Rates Mean ± SE Compounds at 100 μM [1]	identified as human SIRT5 inhibitor [2]	SIRT5 Ratio of Control Rates Mean ± SE Compounds at 200 μM [2, 3]	maximum stimulation observed for SIRT5, increase in activity [2, 3] [fold]	relative activation of SIRT5 versus SIRT1 (in words) [2]	maximum stimulation observed for SIRT1, increase in activity [1] [fold]
Oc1ccc(/C=C/c2ccccc2)cc1O [3,4-Dihydroxy-trans-stilbene]	1.64 ± 0.10	SIRT5 inhibitors	0.58 ± 0.25	–	–	–
Oc1cccc(/C=C/c2ccccc2)c1 [3-Hydroxy-trans-stilbene]	2.36 ± 0.07	SIRT5 inhibitors	0.79 ± 0.06	–	–	–
COc1ccc(/C=C/c2ccccc2)cc1 [4-Methoxy-trans-stilbene]	0.84 ± 0.09	SIRT5 inhibitors	0.79 ± 0.20	–	–	–
Oc1cc(O)cc(/C=C/c2ccc(Cl)cc2)c1 [BML-217, 3,5-Dihydroxy-4′-chloro-trans-stilbene]	10.6 ± 0.4	–	13.6 ± 0.4	13.6	potent activator of SIRT5 and SIRT1	–
Oc1cc(O)cc(/C=C/c2ccc3ccccc3c2)c1 [BML-218, (E)-1-(3,5-Dihydroxyphenyl)-2-(2-napthyl)ethene]	3.05 ± 0.37	–	2.47 ± 0.22	–	–	–
CC(=O)Oc1ccc(/C=C/c2cc(O)cc(O)c2)cc1 [BML-221, 3,5-Dihydroxy-4′-acetoxy-trans-stilbene]	3.05 ± 0.54	–	2.89 ± 0.15	–	–	–
CC(=O)Nc1ccc(/C=C/c2cc(O)cc(O)c2)cc1 [BML-222, 3,5-Dihydroxy-4′-acetamide-trans-stilbene]	1.88 ± 0.11	–	2.26 ± 0.17	–	–	–
COc1cc(O)cc(/C=C/c2ccc(NC(C)=O)cc2)c1 [BML-223, 3-methoxy-5-hydroxy-4′-acetamido-trans-stilbene]	–	–	3.10 ± 0.016	–	–	–
Oc1cc(O)cc(/C=C/C2CCCCC2)c1 [BML-224, (E)-1-(3,5-Dihydroxyphenyl)-2-(cyclohexyl)ethene]	1.30 ± 0.04	–	1.40 ± 0.23	–	–	–
CCc1ccc(/C=C/c2cc(O)cc(O)c2)cc1 [BML-225, 3,5-Dihydroxy-4′-ethyl-trans-stilbene]	9.373 ± 0.014	–	8.41 ± 0.36	–	–	–
CC(=O)Oc1cc(O)cc(/C=C/c2ccc(O)cc2)c1 [BML-227, 3,4′-Dihydroxy-5-acetoxy-trans-stilbene]	2.69 ± 0.08	–	2.09 ± 0.25	–	–	–
Cc1ccc(/C=C/c2cc(O)cc(O)c2)cc1 [BML-228, 3,5-Dihydroxy-4′-methyl-trans-stilbene]	7.72 ± 0.12	–	8.12 ± 0.31	–	–	–
O=[N+]([O-])c1ccc(/C=C/c2cc(O)cc(O)c2)cc1 [BML-229, 3,5-Dihydroxy-4′-nitro-trans-stilbene]	6.78 ± 0.22	–	3.43 ± 0.10	–	–	–
CSc1ccc(/C=C/c2cc(O)cc(O)c2)cc1 [BML-230, 3,5-Dihydroxy-4′-thiomethyl-trans-stilbene]	6.84 ± 1.26	–	4.60 ± 0.17	–	–	–
CC(C)c1ccc(/C=C/c2cc(O)cc(O)c2)cc1 [BML-231, 3,5-Dihydroxy-4′-isopropyl-trans-stilbene]	6.01 ± 0.15	–	8.41 ± 0.22	–	–	–
Oc1cc(O)cc(/C=C/c2ccncc2)c1 [BML-236, (E)-1-(3,5-Dihydroxyphenyl)-2-(4-pyridyl)ethene]	1.26 ± 0.12	–	2.49 ± 0.29	–	–	–
COC(=O)c1ccc(/C=C/c2cc(O)cc(O)c2)cc1 [BML-237, 3,5-Dihydroxy-4′-carbomethoxy-trans-stilbene]	2.74 ± 0.37	–	4.50 ± 0.28	–	selective activators of SIRT5 as compared to SIRT1	–
O=C(O)c1ccc(/C=C/c2cc(O)cc(O)c2)cc1 [BML-238, 3,5-Dihydroxy-4′-carboxy-trans-stilbene]	1.36 ± 0.10	–	2.09 ± 0.25	–	–	–
CCSc1ccc(/C=C/c2cc(O)cc(O)c2)cc1 [BML-243, 3,5-Dihydroxy-4′-thioethyl-trans-stilbene]	12.6 ± 0.4	–	2.12 ± 0.34	–	selective activators of SIRT1 as compared to SIRT5; also recorded: relatively less potent SIRT5 activators	12.6
O=C(/C=C/c1ccc(O)c(O)c1)c1ccc(O)cc1O [Butein, 3,4,2′,4′-Tetrahydroxychalcone]	8.53 ± 0.89	–	2.19 ± 0.10	–	selective activators of SIRT1 as compared to SIRT5; also recorded: relatively less potent SIRT5 activation	–
O=c1c(O)c(-c2ccc(O)c(O)c2)oc2cc(O)ccc12 [Fisetin, 3,7,3′,4′-Tetrahydroxyflavone]	6.58 ± 0.69	–	2.61 ± 0.19	–	relatively less potent SIRT5 activation	–
CC(Cc1ccc(O)c(O)c1)C(C)Cc1ccc(O)c(O)c1 (stereo not drawn) [NDGA, Nordihydroguaiaretic acid]	1.738 ± 0.088	–	1.91 ± 0.02	–	–	–
Oc1cc(O)cc(/C=C/c2ccc(O)c(O)c2)c1 [Piceatannol, 3,5,3′,4′-Tetrahydroxy-trans-stilbene]	7.90 ± 0.50	–	3.23 ± 0.21	–	relatively more potent at activating SIRT1 than SIRT5	–
Oc1cc(O)cc(/C=C/c2ccccc2)c1 [Pinosylvin, 3,5-Dihydroxy-trans-stilbene]	9.95 ± 0.45	–	2.71 ± 0.092	–	relatively more potent at activating SIRT1 than SIRT5	–
O=c1c(O)c(-c2ccc(O)c(O)c2)oc2cc(O)cc(O)c12 [Quercetin, 3,5,7,3′,4′-Pentahydroxyflavone]	4.59 ± 0.47	–	2.18 ± 0.10	–	relatively less potent SIRT5 activation	–
Cc1ccc(NC(=O)c2cccc(N(C)C)c2)cc1NC(=O)c1ccc(O)cc1 [ZM 336372, N-[5-(3-dimethylaminobenzamido)-2-methylphenyl]-4-hydroxybenzamide]	3.5 ± 1.1	SIRT5 inhibitors	0.74 ± 0.05	–	selective activators of SIRT1 as compared to SIRT5	–
